Reference: ChEMBL document CHEMBL1126458, “Structurally novel antiarrhythmic / antioxidant quinazolines” (Bioorg Med Chem Lett, 1992)
In brackets after ≈: the same amount, converted by molar mass.

Tests used:
Oryctolagus cuniculus = organism: Oryctolagus cuniculus; experiment: In vitro inhibition of iron-dependent peroxidation of rabbit brain vesicular membrane lipids; type: functional
Homo sapiens [1] = organism: Homo sapiens; experiment: Inhibition of C5a-induced luminol dependent chemiluminescence of human neutrophils; NA - compound found inactive at 10 uM; type: functional
Homo sapiens [2] = organism: Homo sapiens; experiment: Inhibition of C5a-induced luminol dependent chemiluminescence of human neutrophils; NS - Not sufficiently soluble in saline for testing; type: functional
[3] = Oxidation potential as carbon paste disc electrode against a Ag/AgCl reference electrode
Homo sapiens [4] = organism: Homo sapiens; experiment: Inhibition of C5a-induced luminol dependent chemiluminescence of human neutrophils; type: functional
Canis familiaris [5] = organism: Canis familiaris; experiment: Maximal rate of depolarization at 10 uM concentration on Isolated Canine Purkinje Fibers; type: functional; conditions: Canis lupus familiaris, Purkinje fiber
Canis familiaris [6] = organism: Canis familiaris; experiment: Compound was evaluated for conduction time from stimulating to intracellular recording electrode at 10 uM concentration on Isolated Canine Purkinje Fibers; type: functional, Canis lupus familiaris, Purkinje fiber
Canis familiaris [7] = organism: Canis familiaris; experiment: Resting potential on Isolated Canine Purkinje Fibers at 10 uM concentration; type: functional, Canis lupus familiaris, Purkinje fiber
Canis familiaris [8] = organism: Canis familiaris; experiment: Action potential amplitude at 10 uM concentration on Isolated Canine Purkinje Fibers was determined; type: functional, Canis lupus familiaris, Purkinje fiber
Canis familiaris [9] = organism: Canis familiaris; experiment: Action potential duration at 95% of repolarization was determined at 10 uM concentration on Isolated Canine Purkinje Fibers; type: functional, Canis lupus familiaris, Purkinje fiber
Canis familiaris [10] = organism: Canis familiaris; experiment: Action potential duration at 50% of repolarization was determined at 10 uM concentration on Isolated Canine Purkinje Fibers; type: functional, Canis lupus familiaris, Purkinje fiber
Canis familiaris [11] = organism: Canis familiaris; experiment: Action potential duration at 50% of repolarization was determined at 100 uM concentration on Isolated Canine Purkinje Fibers; type: functional, Canis lupus familiaris, Purkinje fiber
[12] = Plasma concentration in dogs when measured 1 and 5 hours following initiation of reperfusion at 300 min; type: ADME, organism-based, Canis lupus familiaris; conditions: dog
Canis familiaris [13] = organism: Canis familiaris; experiment: Maximal rate of depolarization at 100 uM concentration on Isolated Canine Purkinje Fibers; type: functional; conditions: Canis lupus familiaris, Purkinje fiber
Canis familiaris [14] = organism: Canis familiaris; experiment: Action potential amplitude at 100 uM concentration on Isolated Canine Purkinje Fibers was determined; type: functional, Canis lupus familiaris, Purkinje fiber
Canis familiaris [15] = organism: Canis familiaris; experiment: Compound was evaluated for conduction time from stimulating to intracellular recording electrode at 100 uM concentration on Isolated Canine Purkinje Fibers; type: functional, Canis lupus familiaris, Purkinje fiber
Canis familiaris [16] = organism: Canis familiaris; experiment: Resting potential on Isolated Canine Purkinje Fibers at 100 uM concentration; type: functional, Canis lupus familiaris, Purkinje fiber
[17] = Plasma concentration in dogs when measured 1 and 5 hours following initiation of reperfusion at 30 min; type: ADME, organism-based, Canis lupus familiaris; conditions: dog
[18] = Plasma concentration in dogs when measured 1 and 5 hours following initiation of reperfusion at 60 min; type: ADME, organism-based, Canis lupus familiaris; conditions: dog

Structure (SMILES): CCN(CC)c1nc(NCCNC(=O)c2cc(OC)c(OC)c(OC)c2)c2ccccc2n1.CS(=O)(=O)O
- MIC (Oryctolagus cuniculus): > 100 µM
- EC50 (Homo sapiens [1]): Not Active

Structure (SMILES): CCN(CC)c1nc(NCCNC(=O)c2cc(O)c(OC)c(OC)c2)c2ccccc2n1.CS(=O)(=O)O
- MIC (Oryctolagus cuniculus): > 100 µM
- EC50 (Homo sapiens [2]): Not Active
- E1/2 [3]: 440 mV

Structure (SMILES): CCN(CC)c1nc(NCCNC(=O)c2cc(OC)c(O)c(OC)c2)c2ccccc2n1
- MIC (Oryctolagus cuniculus): > 100 µM
- E1/2 [3]: 340 mV
- EC50 (Homo sapiens [4]): 3300 nM

Structure (SMILES): CCN(CC)c1nc(NCCNC(=O)c2ccc(F)cc2)c2ccccc2n1.O=C(O)C(=O)O
- Vmax (Canis familiaris [5]): -54 V s-1
- CT (Canis familiaris [6]): 72 ms
- RP (Canis familiaris [7]): -3 mV
- APA (Canis familiaris [8]): -15 mV
- APD95 (Canis familiaris [9]): 1 ms
- APD50 (Canis familiaris [10]): -48 ms

Structure (SMILES): CCN(CC)c1nc(NCCNC(=O)c2cc(O)c(OC)c(O)c2)c2ccccc2n1
- MIC (Oryctolagus cuniculus): > 100 µM
- E1/2 [3]: 320 mV
- EC50 (Homo sapiens [4]): 9500 nM

Structure (SMILES): CCN(CC)c1nc(NCCNC(=O)c2cc(O)c(O)c(OC)c2)c2ccccc2n1
- MIC (Oryctolagus cuniculus): 10 µM (≈ 4.25 µg/mL)
- E1/2 [3]: 130 mV
- EC50 (Homo sapiens [4]): 900 nM

Structure (SMILES): CCN(CC)c1nc(NCCNC(=O)c2ccc(C(F)(F)F)cc2)c2ccccc2n1.O=C(O)C(=O)O
- Vmax (Canis familiaris [5]): -62 V s-1
- CT (Canis familiaris [6]): 79 ms
- RP (Canis familiaris [7]): -7 mV
- APA (Canis familiaris [8]): -23 mV
- APD95 (Canis familiaris [9]): 2 ms
- APD50 (Canis familiaris [10]): -24 ms

Structure (SMILES): CCN(CC)c1nc(NCCNC(=O)c2ccccc2)c2ccccc2n1.O=C(O)C(=O)O
- Vmax (Canis familiaris [5]): -43 V s-1
- CT (Canis familiaris [6]): 119 ms
- RP (Canis familiaris [7]): -3 mV
- APA (Canis familiaris [8]): -15 mV
- APD95 (Canis familiaris [9]): -2 ms
- APD50 (Canis familiaris [10]): -34 ms

Structure (SMILES): CCN(CC)c1nc(NCCNC(=O)c2cc(OC)c(OC)c(OC)c2)c2ccccc2n1 [listing 1 of 2 here]
- CT (Canis familiaris [6]): 123 ms
- RP (Canis familiaris [7]): -4 mV
- APA (Canis familiaris [8]): -14.4 mV
- APD95 (Canis familiaris [9]): -24 ms
- APD50 (Canis familiaris [10]): -46 ms

Structure (SMILES): CCN(CC)c1nc(NCCNC(=O)c2ccccc2OC)c2ccccc2n1
- Vmax (Canis familiaris [5]): -71 V s-1
- CT (Canis familiaris [6]): 71 ms
- RP (Canis familiaris [7]): -15 mV
- APA (Canis familiaris [8]): -31 mV
- APD95 (Canis familiaris [9]): 15 ms
- APD50 (Canis familiaris [10]): -24 ms

Structure (SMILES): CCN(CC)c1nc(NCCNC(=O)c2ccc(OC)cc2)c2ccccc2n1.O=C(O)C(=O)O
- Vmax (Canis familiaris [5]): -30 V s-1
- CT (Canis familiaris [6]): 17 ms
- RP (Canis familiaris [7]): -6 mV
- APA (Canis familiaris [8]): -11 mV
- APD95 (Canis familiaris [9]): -5 ms
- APD50 (Canis familiaris [10]): -35 ms

Structure (SMILES): CCN(CC)c1nc(NCCNC(=O)c2cc(O)c(O)c(O)c2)c2ccccc2n1.CS(=O)(=O)O
- Vmax (Canis familiaris [5]): -2 V s-1
- MIC (Oryctolagus cuniculus): 3 µM
- APD95 (Canis familiaris [11]): 11 ms
- concentration at 5 h [12]: 1300 ng/mL
- Vmax (Canis familiaris [13]): -32 V s-1
- CT (Canis familiaris [6]): 7 ms
- APD50 (Canis familiaris [14]): -13 ms
- RP (Canis familiaris [7]): 0 mV
- APA (Canis familiaris [15]): -9 mV
- CT (Canis familiaris [15]): 11 ms
- E1/2 [3]: 15 mV
- EC50 (Homo sapiens [4]): 300 nM
- RP (Canis familiaris [16]): -4 mV
- APA (Canis familiaris [8]): 0 mV
- APD95 (Canis familiaris [9]): 1 ms
- concentration at 30 min [17]: 240 ng/mL
- APD50 (Canis familiaris [10]): -1 ms
- concentration at 60 min [18]: 1700 ng/mL

Structure (SMILES): CCN(CC)c1nc(NCCNC(=O)c2cc(OC)c(OC)c(OC)c2)c2ccccc2n1 [listing 2 of 2 here]
- Vmax (Canis familiaris [5]): -40 V s-1
- E1/2 [3]: > 600 mV
